System: Mesenchymal Stem cells (MSCs)
Assay: Oil Red O staining and quantification of adipogenic differentiation of MSCs in 2D culture
Type: cell-based
Conditions: FIG. 3; plate reader
Description: Palmitoleic, erusic, elaidic, and oleic acids are diluted to 20 mM concentration in ethanol absolute. Each FFA is prepared separately, following which, all […] FFAs are mixed together at equal volumes to create the FFA stock mix.
The stock mix is then added to cell growth medium at a concentration of 100 uM per FFA (dilution of 1:50 from stock mix).
Food grade sunflower lecithin is suspended in PBS 1× at 50 mg/ml concentration, and the suspension is sonicated at medium speed for 1-2 min, to then reach a homogenized solution then filtered through a 0.22 μm filter. The lecithin emulsion is added to cell growth medium at a concentration of 1 mg/ml (dilution of 1:50 from stock solution).
The two mediums were refreshed every 3 days and Oil red O quantification was performed on day 8 of contact.
It is noted, that high cell density can cause a curling effect that produced a cell aggregate, reveling underlying cells. A. (negative control culture)—The cell aggregate falsely stained by ORO (A2); the aggregation reviles few cells on the surface of the well (A1). B. (4FFAs+Insulin treatment) Cells produce a sheet that detaches from the surface (B1), with underlying differentiating cells (B3). C. […]
Turning now to FIG. 3, where Oil Red O (ORO) quantification was carried out after extraction using 2-propanol. ORO was extracted and quantified by absorption reading in a plate reader at 492 nm. […]

insulin
Oil Red O (ORO) quantity, absorption at 492 nm after 2-propanol extraction, versus control: no statistical difference than control

Source: patent US20240417688A1, “METHODS AND SYSTEMS FOR ADIPOCYTES DIFFERENTIATION” (priority 2021, published 2024)
